Patent US20060275299A1, “Use of protein tyrosine phosphatase inhibitors for prevention and/or treatment of cancer” (priority 2002, published 2006)

Experiments:
Assay type in all cases: cell-based, human
[1] = tested on: Sap-1; test: DTT treatment of Sap-1 overexpressing COS7 cells, multimers on non-reducing gel
Protocol: Cells treated with DTT were serum-starved 8 hours after transfection (with PTP-Sap1 constructs or vector), and then incubated for 30 minutes in serum-free medium with various amount of DTT (Sigma). Before lysis in a buffer containing 150 mM iodoacetamide (“IODA” Sigma), cells were washed with ice cold PBS containing 50 mM iodoacetamide in order to block the free DTT. Samples were run under reducing and non-reducing conditions, with or without β-mercaptoethanol in the sample buffer, respectively.

[2] = tested on: Sap-1; test: Chemical cross-linking of Sap-1 constructs in transfected COS7 cells (Western blot); conditions: for cross-linking of ECD-deleted Sap-1 / cross-linking of full-length (FL) Sap-1: anti-HA Western blot, FIG. 5
Protocol: COS 7 cells were transfected with the indicated construct and left for 24 hours at 37° C. Medium was changed and a solution of BS3 (Pierce) in PBS (2.5 mg/ml) or PBS alone was added, and left for 1 hour at 4° C. The cross-linking reaction was stopped by the addition of PBS that contained 0.15 M Tris pH 7.5 for 15 minutes at 4° C. Cells were finally lysed and the protein content was used for further analysis. The treatment with DSS (Pierce) was the same except that the product was dissolved in DMSO at a concentration of 25 mM (10×). It was then diluted in PBS and cells were incubated with 0.1×DMSO.

[3] = tested on: WiDr cells; test: Streptolysin transfection of antisense ODN and BrdU proliferation assay; conditions: BrdU, streptolysin-O, ODN 1 mM final

With `O[C@H](CS)[C@H](O)CS` (racemic) [DTT, Dithiothreitol] the “reversibility of multimer disruption” value ([1]; 30 minutes at 50 mM DTT, washout, 15 minutes recovery without DTT) was “fully restored formation of the multimers” and the “multimerized Sap-1 on non-reducing gel” value ([1]; cells incubated 30 minutes in DTT, FIG. 6B) was “dose-dependent decrease”.

For `O=C(CCCCCCC(=O)ON1C(=O)CC(S(=O)(=O)O)C1=O)ON1C(=O)CC(S(=O)(=O)O)C1=O` (stereo not drawn) [BS3, Bis-Sulfosuccinimidyl-Suberate], the “cross-linking of ECD-deleted Sap-1” value [2] was “no effect”, the “cross-linking of full-length (FL) Sap-1” value [2] was “induces the formation of a complex with high MW” and the “cross-linking of FLEX-Cterm Sap-1 construct” value ([2]; anti-Myc Western blot, FIG. 8A) was “efficiently cross-linked”.

`O=C(CCCCCCC(=O)ON1C(=O)CCC1=O)ON1C(=O)CCC1=O` [DSS, Di-Succinimidyl-Suberate] was tested, and the “cross-linking of membrane-associated ECD-deleted Sap-1 lacking transmembrane domain (lck myristoylation peptide)” value ([2]; FIG. 5B right panel) was “could not be cross-linked”, the “cross-linking of ECD-deleted Sap-1” value [2] was “but not ECD-deleted Sap-1” and the “cross-linking of full-length (FL) Sap-1” value [2] was “able to cross-link”.

For “AS2: antisense ODN to PTP-SAP1 mRNA: TGACCCGGGTCCAAGGCCAT (antisense TGACCCGGGTCCAAGGCCAT; chemistry not given here)”, the “reduction of the proliferation” value [3] was 20%.
